Assay results published in ChEMBL document CHEMBL3272295, “Drugs derived from cannabinoids. 5. delta6a,10a-Tetrahydrocannabinol and heterocyclic analogs containing aromatic side chains” (J Med Chem, 1976).
The source made the active and inactive calls. The calls are words filed in the database; no cut-off is given here.

Tests used:
Rattus norvegicus [1] = experiment: Antiulcer activity in albino Sprague-Dawley rat shay ulcer model assessed as ulcer index scores at 40 mg/kg administered intraduodenally post pyloric ligation measured after 18.5 hrs relative to vehicle-treated control; assay type: functional; settings: route intraduodenal
Rattus norvegicus [2] = experiment: Antiulcer activity in albino Sprague-Dawley rat shay ulcer model assessed as ulcer index scores at 50 mg/kg administered intraduodenally post pyloric ligation measured after 18.5 hrs relative to vehicle-treated control; assay type: functional; settings: route intraduodenal
Rattus norvegicus [3] = experiment: Antidiarrheal activity in Charles River rat assessed as inhibition of castor oil-induced diarrhea by measuring protected animals at 0.25 mg/kg, po administered 1 hr prior to castor oil challenge measured after 1 hr relative to vehicle-treated control; assay type: functional
Rattus norvegicus [4] = experiment: Antisecretory activity in Sprague-Dawley rat assessed as decrease in acid output at 50 mg/kg, po administered 30 mins prior to pylorus ligation measured after 4 hrs relative to control; assay type: functional; parameters: scale not given: the % may be the effect or the level left
Rattus norvegicus [5] = experiment: Antisecretory activity in Sprague-Dawley rat assessed as decrease in pepsin output at 50 mg/kg, po administered 30 mins prior to pylorus ligation measured after 4 hrs relative to control; assay type: functional; parameters: scale not given: the % may be the effect or the level left
Rattus norvegicus [6] = species: Rattus norvegicus; experiment: animal or person; assay type: functional; settings: Charles River, route oral
Description: Antidiarrheal activity in Charles River rat assessed as inhibition of castor oil-induced diarrhea by measuring protected animals at 0.5 mg/kg, po administered 1 hr prior to castor oil challenge measured after 1 hr relative to vehicle-treated control

Rattus norvegicus [7] = species: Rattus norvegicus; experiment: animal or person; assay type: functional; settings: Charles River, route oral; remark: listed apart in the source
Description: Antidiarrheal activity in Charles River rat assessed as inhibition of castor oil-induced diarrhea by measuring protected animals at 1 mg/kg, po administered 1 hr prior to castor oil challenge measured after 1 hr relative to vehicle-treated control

Rattus norvegicus [8] = experiment: Antiulcer activity in albino Sprague-Dawley rat stress ulcer model assessed as prevention of stress-induced gastric lesions by measuring ulcer index score at 10 mg/kg, po administered 30 mins prior to stress measured after 4 hrs; assay type: functional, Stomach
Rattus norvegicus [9] = experiment: Antiulcer activity in albino Sprague-Dawley rat reserpine ulcer model assessed as prevention of reserpine-induced gastric lesions by measuring ulcer index scores at 10 mg/kg, po administered 30 mins prior to reserpine challenge measured after 6 hrs; assay type: functional; settings: Stomach
Rattus norvegicus [10] = experiment: Antiulcer activity in albino Sprague-Dawley rat shay ulcer model assessed as ulcer index scores at 20 mg/kg administered intraduodenally post pyloric ligation measured after 18.5 hrs relative to vehicle-treated control; assay type: functional; settings: route intraduodenal
[11] = Acute toxicity in po dosed mouse; assay type: organism-based; settings: in vivo
Rattus norvegicus [12] = experiment: Antiulcer activity in albino Sprague-Dawley rat stress ulcer model assessed as prevention of stress-induced gastric lesions by measuring ulcer index score at 40 mg/kg, po administered 30 mins prior to stress measured after 4 hrs; assay type: functional, Stomach
Rattus norvegicus [13] = experiment: Antiulcer activity in albino Sprague-Dawley rat reserpine ulcer model assessed as prevention of reserpine-induced gastric lesions by measuring ulcer index scores at 50 mg/kg, po administered 30 mins prior to reserpine challenge measured after 6 hrs; assay type: functional, Stomach
Rattus norvegicus [14] = experiment: Antipsychotic activity in rat assessed as reduction of methamphetamine-induced hyperactivity at 10 mg/kg, po administered prior to methamphetamine challenge relative to vehicle-treated control; assay type: functional; parameters: scale not given: the % may be the effect or the level left
Mus musculus [15] = experiment: Antidepressant activity in po dosed mouse assessed as potentiation of DOPA-induced effect administered 4 hrs prior to DOPA challenge; assay type: functional; settings: read-out: MED
Rattus norvegicus [16] = experiment: Antihypertensive activity in spontaneously hypertensive rat model assessed as reduction in blood pressure at 10 mg/kg, po after 3 hrs; assay type: functional; parameters: scale not given: the % may be the effect or the level left
Rattus norvegicus [17] = experiment: Antihypertensive activity in spontaneously hypertensive rat model assessed as reduction in blood pressure at 10 mg/kg, po after 24 hrs; assay type: functional; parameters: scale not given: the % may be the effect or the level left
Rattus norvegicus [18] = experiment: Antihypertensive activity in spontaneously hypertensive rat model assessed as reduction in blood pressure at 3 mg/kg, po after 3 hrs; assay type: functional; parameters: scale not given: the % may be the effect or the level left
Rattus norvegicus [19] = experiment: Antihypertensive activity in spontaneously hypertensive rat model assessed as reduction in blood pressure at 3 mg/kg, po after 24 hrs; assay type: functional; parameters: scale not given: the % may be the effect or the level left
Felis catus [20] = experiment: Hypnotic activity in cat assessed as increase in total sleep time at 1 mg/kg administered orally through diet measured for 12 hrs by EEG analysis; assay type: functional; settings: route oral
Felis catus [21] = experiment: Hypnotic activity in cat assessed as increase in total sleep time at 0.5 mg/kg administered orally through diet measured for 12 hrs by EEG analysis; assay type: functional; settings: route oral
Felis catus [22] = experiment: Hypnotic activity in cat assessed as decrease in total sleep time at 0.025 mg/kg administered orally through diet measured for 12 hrs by EEG analysis; assay type: functional; settings: route oral
Felis catus [23] = experiment: Hypnotic activity in cat assessed as increase in total sleep time at 0.1 mg/kg administered orally through diet measured for 12 hrs by EEG analysis; assay type: functional; settings: route oral
Felis catus [24] = experiment: Hypnotic activity in cat assessed as increase in total sleep time at 0.25 mg/kg administered orally through diet measured for 12 hrs by EEG analysis; assay type: functional; settings: route oral
Felis catus [25] = experiment: Hypnotic activity in cat assessed as increase in non-REM sleep time at 0.5 mg/kg administered orally through diet measured for 12 hrs by EEG analysis; assay type: functional; settings: route oral
Felis catus [26] = experiment: Hypnotic activity in cat assessed as increase in non-REM sleep time at 0.025 mg/kg administered orally through diet measured for 12 hrs by EEG analysis; assay type: functional; settings: route oral
Felis catus [27] = experiment: Hypnotic activity in cat assessed as increase in non-REM sleep time at 0.1 mg/kg administered orally through diet measured for 12 hrs by EEG analysis; assay type: functional; settings: route oral
Felis catus [28] = experiment: Hypnotic activity in cat assessed as increase in non-REM sleep time at 0.25 mg/kg administered orally through diet measured for 12 hrs by EEG analysis; assay type: functional; settings: route oral
Rattus norvegicus [29] = experiment: Antisecretory activity in Sprague-Dawley rat assessed as decrease in volume at 50 mg/kg, po administered 30 mins prior to pylorus ligation measured after 4 hrs relative to control; assay type: functional; parameters: scale not given: the % may be the effect or the level left
Rattus norvegicus [30] = experiment: Antisecretory activity in Sprague-Dawley rat assessed as decrease in acidity at 50 mg/kg, po administered 30 mins prior to pylorus ligation measured after 4 hrs relative to control; assay type: functional; parameters: scale not given: the % may be the effect or the level left
Mus musculus [31] = experiment: Analgesic activity in po dosed mouse assessed as inhibition of acetic acid-induced writhing administered 30 mins prior to acetic acid challenge measured after 5 mins for 20 mins; assay type: functional
Rattus norvegicus [32] = experiment: Antianxiety activity in Long-Evans rat assessed as reduction in motor activity at 1 mg/kg, po after 2 hrs relative to vehicle-treated control; assay type: functional; parameters: scale not given: the % may be the effect or the level left
Mus musculus [33] = experiment: Antianxiety activity in albino BALB/cJ mouse assessed as reduction in footshock-induced fighting behavior at 10 mg/kg, po after 30 to 90 mins; assay type: functional; parameters: scale not given: the % may be the effect or the level left
Mus musculus [34] = experiment: Antianxiety activity in albino BALB/cJ mouse assessed as reduction in footshock-induced fighting behavior at 1 mg/kg, po after 30 to 90 mins; assay type: functional; parameters: scale not given: the % may be the effect or the level left
Rattus norvegicus [35] = experiment: Antianxiety activity in Long-Evans rat assessed as reduction in motor activity at 10 mg/kg, po after 2 hrs relative to vehicle-treated control; assay type: functional; parameters: scale not given: the % may be the effect or the level left
Rattus norvegicus [36] = experiment: Antianxiety activity in Long-Evans rat assessed as reduction in motor activity at 0.5 mg/kg, po after 2 hrs relative to vehicle-treated control; assay type: functional; parameters: scale not given: the % may be the effect or the level left
Canis familiaris = experiment: Antianxiety activity in po dosed dog assessed as ataxia administered as single dose measured up to 24 hrs; assay type: functional; settings: Canis lupus familiaris, read-out: MED
Rattus norvegicus [37] = experiment: Antipsychotic activity in rat assessed as reduction of methamphetamine-induced hyperactivity at 5 mg/kg, po administered prior to methamphetamine challenge relative to vehicle-treated control; assay type: functional; parameters: scale not given: the % may be the effect or the level left
Rattus norvegicus [38] = experiment: Antipsychotic activity in rat assessed as reduction of methamphetamine-induced hyperactivity at 1 mg/kg, po administered prior to methamphetamine challenge relative to vehicle-treated control; assay type: functional; parameters: scale not given: the % may be the effect or the level left
Rattus norvegicus [39] = experiment: Analgesic activity in po dosed Sprague-Dawley rat after 15 to 90 mins by tail flick test; assay type: functional
Mus musculus [40] = experiment: Analgesic activity in mouse assessed as inhibition of acetic acid-induced writhing at 20 mg/kg, po administered 30 mins prior to acetic acid challenge measured after 5 mins for 20 mins; assay type: functional
Rattus norvegicus [41] = experiment: Antianxiety activity in Long-Evans rat assessed as reduction in motor activity at 5 mg/kg, po after 2 hrs relative to vehicle-treated control; assay type: functional; parameters: scale not given: the % may be the effect or the level left
Rattus norvegicus [42] = experiment: Antianxiety activity in Long-Evans rat assessed as reduction in motor activity at 40 mg/kg, po after 2 hrs relative to vehicle-treated control; assay type: functional; parameters: scale not given: the % may be the effect or the level left
Rattus norvegicus [43] = experiment: Antipsychotic activity in rat assessed as reduction of methamphetamine-induced hyperactivity at 2.5 mg/kg, po administered prior to methamphetamine challenge relative to vehicle-treated control; assay type: functional; parameters: scale not given: the % may be the effect or the level left
Mus musculus [44] = experiment: Anticonvulsant activity in po dosed mouse assessed as dose required to protect 80% of animal measured after 1 to 4 hrs by audiogenic seizure test; assay type: functional
Rattus norvegicus [45] = experiment: Antianxiety activity in Long-Evans rat assessed as reduction in motor activity at 1.25 mg/kg, po after 2 hrs relative to vehicle-treated control; assay type: functional; parameters: scale not given: the % may be the effect or the level left
Rhesus monkey = experiment: Antianxiety activity in po dosed rhesus monkey assessed as antiagressive behavior measured every hour post dosing; assay type: functional; settings: Macaca mulatta, read-out: MED
Rattus norvegicus [46] = experiment: Antianxiety activity in Long-Evans rat assessed as reduction in motor activity at 100 mg/kg, po after 2 hrs relative to vehicle-treated control; assay type: functional; parameters: scale not given: the % may be the effect or the level left

C#CCN1CCC2=C(C1)c1c(O)cc(C(C)C(C)CCCCC)cc1OC2(C)C (centres undefined)
UI (Rattus norvegicus [1]): 0.3
UI (Rattus norvegicus [2]): 0.5
inhibition in vivo at 0.25 mg/kg (Rattus norvegicus [3]): 20%
Activity (Rattus norvegicus [4]): 49.8%
Activity (Rattus norvegicus [5]): 41.9%
inhibition in vivo at 0.5 mg/kg (Rattus norvegicus [6]): 63%
inhibition in vivo at 1 mg/kg (Rattus norvegicus [7]): 100%
UI (Rattus norvegicus [8]): 1.3
Activity (Rattus norvegicus [9]): inactive
UI (Rattus norvegicus [10]): 4.2
LD50 [11]: ≥ 1000 mg/kg
UI (Rattus norvegicus [12]): 1.6
UI (Rattus norvegicus [13]): 1.8
Activity (Rattus norvegicus [14]): 74%
minimal effective dose (Mus musculus [15]): 2 mg/kg
Activity (Rattus norvegicus [16]): 23%
Activity (Rattus norvegicus [17]): 27%
Activity (Rattus norvegicus [18]): 7%
Activity (Rattus norvegicus [19]): 4%
Time (Felis catus [20]): 39 min
Time (Felis catus [21]): 44 min
Time (Felis catus [22]): -12 min
Time (Felis catus [23]): 100 min
Time (Felis catus [24]): 56 min
Time (Felis catus [25]): 28 min
Time (Felis catus [26]): 25 min
Time (Felis catus [27]): 62 min
Time (Felis catus [28]): 21 min
Activity (Rattus norvegicus [29]): 39.3%
Activity (Rattus norvegicus [30]): 23.5%
ED50 (Mus musculus [31]): 4.3 mg/kg
Activity (Rattus norvegicus [32]): 71%
Activity (Mus musculus [33]): 62%
Activity (Mus musculus [34]): 42%
Activity (Rattus norvegicus [35]): 75%
Activity (Rattus norvegicus [36]): 35%
minimal effective dose (Canis familiaris): 1 mg/kg
Activity (Rattus norvegicus [37]): 52%

C#CCN1CCC2=C(C1)c1c(OC(C)=O)cc(C(C)CCCc3ccc(F)cc3)cc1OC2(C)C (centres undefined)
Activity (Rattus norvegicus [38]): 30%
LD50 [11]: ≥ 1000 mg/kg
ED50 (Rattus norvegicus [39]): 1 mg/kg
inhibition in vivo at 20 mg/kg (Mus musculus [40]): 27%
Activity (Rattus norvegicus [41]): 57%
Activity (Rattus norvegicus [42]): 90%
Activity (Rattus norvegicus [37]): 66%

CCCCCC(C)C(C)c1cc(O)c2c(c1)OC(C)(C)C1CC=C(C)CC21 (centres undefined)
LD50 [11]: ≥ 1000 mg/kg
Activity (Rattus norvegicus [43]): 52%
minimal effective dose (Mus musculus [15]): 20 mg/kg
Activity (Mus musculus [44]): inactive
ED50 (Mus musculus [31]): 7.9 mg/kg
Activity (Mus musculus [33]): 89%
Activity (Rattus norvegicus [45]): 60%
minimal effective dose (Rhesus monkey): 1 mg/kg
Activity (Rattus norvegicus [37]): 81%

CC(C)=CCN1CC[C@]2(C)c3cc(O)ccc3C[C@H]1[C@H]2C [(+)-PENTAZOCINE]
inhibition in vivo at 0.5 mg/kg (Rattus norvegicus [6]): 0%
ED50 (Mus musculus [31]): 37.6 mg/kg
ED50 (Rattus norvegicus [39]): 60 mg/kg
Activity (Rattus norvegicus [35]): 30%
Activity (Rattus norvegicus [46]): 64%
